According to patent US11352399B2, “Peptide for toll-like receptor (TLR) inhibition and pharmaceutical composition comprising same” (GENESEN CO., LTD., priority 2017, dated 2022):

Assays:
NF-κB (p-p65) = assay: Confocal microscopy of NF-κB activity (p-p65) in LPS-treated RAW 264.7 cells; format: cell-based, mouse; conditions: LPS together with TIP1, FIG. 3
Method: RAW 264.7 cells and THP1 cells were dispensed into 24-well plates to a cell number of 2×10^5 cells/well, and then grown in an incubator overnight. Subsequently, combined treatment with TIP1 and LPS was performed. After 24 hours, the RAW 264.7 cells and the THP1 cells were fixed with 3.7% formaldehyde (Sigma-Aldrich Co. LLC) for 15 minutes, and immersed into 0.2% Triton X-100 (AMRESCO, Solon, Ohio, USA) for 15 minutes. Then, washing with PBS was performed three times and blocking with 2% BSA solution was performed. The blocked cells were incubated for 2 hours with TIP1-FITC (25 μM; Peptron, Inc., Daejeon, Korea), p-p65, TLR4, Myd88, TOM20 (1:1000; Santa Cruz Biotechnology Inc.), and NLRP3 (Adipogen) antibodies. Then, washing with PBS was performed three times. Subsequently, the cells were incubated with AlexaFluor […] and/or 488 and/or 546-conjugated secondary antibodies (Invitrogen, Carlsbad, Calif., USA) for 1 hour, and washed three times with PBS. Subsequently, the cells were stained at room temperature for 15 minutes using 5 μM Hoechst 33258 (Sigma-Aldrich Co.), and the number of the fluorescently stained cells was counted using a confocal laser scanning microscope (LSM-700, Carl Zeiss MicroImaging GmbH). The images were analyzed using Zen 2009 software.
The results are illustrated in FIG. 3.

[1] = tested on: mBMDM cells (LPS-induced); assay: LPS-induced cytokine and NO secretion in mBMDM cells; format: cell-based, mouse
Method: RAW 264.7 cells, THP1 cells, and mBMDM cells were dispensed into 96-well plates to a cell number of 2×10^5 cells/well, or into 24-well plates to a cell number of 5×10^5 cells/well. Incubation was performed overnight. Subsequently, combined treatment with TIP1 and LPS was performed. After 24 hours, secretion levels of IFN-β, IL-6, and TNF-α were measured using a […] (BioLegend), Mouse IL-6 Platinum ELISA (eBiosciences), and a Mouse TNF alpha ELISA Ready SET-Go! kit (eBiosciences). Absorbance was measured at 450 nm using a microplate reader spectrophotometer (Molecular Devices), and the results were analyzed using Softmax Pro 5.3 software (Molecular Devices Inc.).
RAW 264.7 cells and mBMDM cells were dispensed into 96-well plates (BD Biosciences) to a cell number of 2×10^5 cells/well and incubated overnight. Then, a NO level of the culture supernatant was measured using a NO detection kit (iNtRON Biotechnology Inc., Seongnam, Korea). Absorbance was measured at 550 nm using a microplate reader spectrophotometer (Molecular Devices Inc.), and the results were analyzed using Softmax Pro 5.3 software (Molecular Devices Inc.).
TNF-α, IL-6, IFN-β levels in the culture supernatant of mBMDM cells were measured using mouse TNF-α, IL-6, IFN-β Ready-SET-Go! ELISA kits according to the method described in Example 2-5, and a NO level in the supernatant was measured according to the method described in Example 2-7. The results are illustrated in FIGS. 6(a)-6(d).

TLR2/6 = biological target: T1, TLR2/6 (Mus musculus, UniProt Q9EPW9+Q9QUN7); assay: TNF-α secretion in RAW 264.7 cells with FSL-1; format: cell-based
T1 construct: host or cells: RAW 264.7

[2] = biological target: T2, BB-loop and C-terminal region of the TIR domain of TLR4 (Homo sapiens, UniProt O00206); assay: Surface plasmon resonance (SPR) assay; format: binding; conditions: conclusion of Experimental Example 8; no SPR constants printed
T2 construct: purchased Peptron, Inc; host or cells: chemical synthesis
Method: Surface plasmon resonance assay was performed using a ProteOn XPR36 instrument (Bio-Rad Laboratories, Inc.) with a ProteOn NLC sensor chip. Specifically, a synthetic peptide encoding BB-loop ([…]) (SEQ ID NO: 54) and C-terminal region ([…]) (SEQ ID NO: 55) of the TIR domain was immobilized on the surface of the NLC sensor chip using NeutrAvidin bound to the GLC polymer layer. For a control, PBS supplemented with 0.05% Tween 20, which is a running buffer, was flowed. […] After the measurement, the surface of the sensor chip was regenerated using 0.85% phosphoric acid or PBST. […] The equilibrium dissociation constant KD was calculated using the equation KD=Kd/Ka.

[3] = tested on: collagen-induced arthritis (CIA) model DBA/1J mice; assay: Collagen-induced arthritis (CIA) model; format: in vivo, mouse
Method: Specifically, chicken collagen type II (Sigma-Aldrich Co. LLC) and complete Freund's adjuvant (Sigma-Aldrich Co. LLC.) were mixed at 1:1 and emulsified. Then, 100 μg of the emulsified collagen solution was injected intradermally into the mouse tail to induce primary immunization, which was designated day 0. After 14 days of the primary immunization, the emulsified collagen solution was injected again intradermally into the mouse tail to induce secondary immunization (boosting).
These plans included a total of seven experimental groups (n=8) and named as follows: (1) Non-treated, normal group (normal); (2) control (vehicle-treated) (CIA, n=8); (3) 2.5 nmol/g TIP1-treated group (CIA-TIP1 (2.5 nmol/g)); (4) 5 nmol/g TIP1-treated group (CIA-TIP1 (5 nmol/g)); (5) 10 nmol/g TIP1-treated group (CIA-TIP1 (10 nmol/g)); (6) 5 μg/g prednisolone (conventional therapeutic agent for arthritis)-treated group (CIA-prednisolone (5 μg/g)); (7) 10 nmol/g TIP1-treated group in post-arthritis phase (PAP) (PAP CIA-TIP1 (10 nmol/g)). TIP1 and prednisolone were dissolved in saline and injected intraperitoneally. Then, changes in behavioral development and disorders such as apparent symptoms and body weight, mouse squeaking, foot volume, and arthritis index were analyzed. The results are illustrated in FIGS. 19(a) and 19(b) and 20(a)-20(d).
Then, the mice were sacrificed on day 45 and joint tissues were sampled. Subsequently, 3D images and bone mineral density (BMD) of the joint tissues were analyzed through micro-computed tomography (Micro-CT). […] The results are illustrated in FIGS. 21 and 22.

[4] = TIP1 2.5, 5, 10 nmol/g i.p. daily, compared with prednisolone 5 mg/kg

T1 sequence (Q9QUN7 25-784): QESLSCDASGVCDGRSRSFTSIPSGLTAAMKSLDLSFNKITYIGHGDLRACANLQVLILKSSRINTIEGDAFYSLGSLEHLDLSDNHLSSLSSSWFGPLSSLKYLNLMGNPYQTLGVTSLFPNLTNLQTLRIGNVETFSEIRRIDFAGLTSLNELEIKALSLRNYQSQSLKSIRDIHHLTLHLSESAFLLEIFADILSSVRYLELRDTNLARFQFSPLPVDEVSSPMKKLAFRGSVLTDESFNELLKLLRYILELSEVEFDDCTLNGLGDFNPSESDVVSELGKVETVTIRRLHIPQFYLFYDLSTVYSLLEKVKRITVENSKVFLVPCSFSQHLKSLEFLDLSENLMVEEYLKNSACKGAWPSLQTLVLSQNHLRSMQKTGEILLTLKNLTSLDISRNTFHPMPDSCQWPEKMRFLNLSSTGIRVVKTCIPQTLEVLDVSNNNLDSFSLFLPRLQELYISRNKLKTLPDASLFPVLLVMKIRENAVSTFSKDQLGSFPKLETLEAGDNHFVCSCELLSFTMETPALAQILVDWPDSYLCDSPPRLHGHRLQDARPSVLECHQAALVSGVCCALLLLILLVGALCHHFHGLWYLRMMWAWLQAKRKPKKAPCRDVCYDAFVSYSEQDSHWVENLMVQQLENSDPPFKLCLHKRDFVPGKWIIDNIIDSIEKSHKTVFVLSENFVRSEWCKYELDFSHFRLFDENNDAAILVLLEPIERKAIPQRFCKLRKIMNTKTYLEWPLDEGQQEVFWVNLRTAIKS
T1 sequence (Q9EPW9 28-795): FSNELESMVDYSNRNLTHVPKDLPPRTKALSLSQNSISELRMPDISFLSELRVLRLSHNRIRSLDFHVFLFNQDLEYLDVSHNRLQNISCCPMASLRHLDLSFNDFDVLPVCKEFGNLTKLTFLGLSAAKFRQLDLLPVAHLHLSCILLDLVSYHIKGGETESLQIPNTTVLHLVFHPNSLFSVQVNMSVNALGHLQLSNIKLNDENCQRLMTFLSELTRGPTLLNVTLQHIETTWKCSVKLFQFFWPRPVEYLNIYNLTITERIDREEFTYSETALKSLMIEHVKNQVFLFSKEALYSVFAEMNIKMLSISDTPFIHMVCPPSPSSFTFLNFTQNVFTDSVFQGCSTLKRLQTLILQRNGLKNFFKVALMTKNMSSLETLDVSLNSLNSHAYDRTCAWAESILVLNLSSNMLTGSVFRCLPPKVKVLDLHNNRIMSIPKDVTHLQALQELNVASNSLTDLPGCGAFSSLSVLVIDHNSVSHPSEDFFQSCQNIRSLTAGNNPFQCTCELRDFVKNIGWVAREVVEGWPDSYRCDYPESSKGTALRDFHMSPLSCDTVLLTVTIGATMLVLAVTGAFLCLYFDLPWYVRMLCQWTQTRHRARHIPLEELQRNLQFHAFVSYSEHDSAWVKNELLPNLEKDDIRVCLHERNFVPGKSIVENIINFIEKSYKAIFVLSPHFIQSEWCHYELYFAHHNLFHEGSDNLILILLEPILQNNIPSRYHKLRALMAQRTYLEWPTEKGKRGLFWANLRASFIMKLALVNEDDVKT

## RQIKIWFQNRRMKWKKSHCRVLLI (TIP1)
NF-κB (p-p65)
  NF-κB activity (LPS-induced p65 phosphorylation level in the nucleus): NF-κB activity was decreased
[1]
  LPS-induced secretion level of IL-6: decreased
  LPS-induced secretion level of NO: decreased
  LPS-induced secretion level of TNF-α: decreased
TLR2/6
  secretion level of TNF-α: decreased
[2]
  binding to TIR domain regions of TLR4: binding to the C-terminal tail and the BB loop among the TIR domains of TLR4
[3]; [4]
  arthritis index increase: inhibited
  body weight loss caused by induction of arthritis: inhibited
  foot volume: inhibited
  squeaking: inhibited
[3]; TIP1 i.p., FIG. 19(b)
  severely swollen foot (visual observation): alleviated similarly to the normal mice
[3]; knee joint, once daily for 30 days
  histopathological modification in cartilage, subchondral bone, femur, tibia and meniscus (H&E): decreased
[3]; once daily for 30 days, sacrificed day 45
  bones damaged by the CIA model (Micro-CT 3D image, bone mineral density): alleviated similarly to the normal mice
